Experimental data: the OPERA property sets (Mansouri et al. 2018)

conditions: not given

SMILES	boiling point [°C]	melting point [°C]	ready biodegradability	log10 vapour pressure (mmHg)	log10 Henry constant (atm·m³/mol)	log10 biodegradation half-life (days)	log10 Koc (L/kg)
CCOC(=O)c1cccs1	218	–	–	–	–	–	–
O=C(OCCOC(=O)C(Cl)(Cl)Cl)C(Cl)(Cl)Cl	–	40	–	–	–	–	–
Cc1ccc[nH]1	147	-35.6	–	–	–	–	–
O=C(O)COc1ccc(Cl)c(Cl)c1	–	139	–	–	–	–	–
CCCN(CCC)S(=O)(=O)c1ccc(C(=O)O)cc1	–	195	–	–	–	–	–
CCC(C)C(C)(CC)CC (centres undefined)	162	–	–	–	–	–	–
CCCC=NO	154	-29.5	–	–	–	–	–
O=C(O)c1ccccc1C(=O)Nc1cccc2ccccc12	–	185	–	–	–	–	–
CCCCCCCOC(=O)CCCC	245	-46.4	–	–	–	–	–
Cc1cccc(C(C)(C)C)c1	189	-41.4	–	–	–	–	–
c1ccc(CCCc2ccncc2)cc1	322	–	–	–	–	–	–
N=C(N)NC(=N)NCCc1ccccc1	–	176	–	–	–	–	–
COc1ccc([N+](=O)[O-])c(OC)c1	–	76.5	–	–	–	–	–
O=S(=O)(O)CCN1CCN(CCS(=O)(=O)O)CC1	–	–	not readily biodegradable	–	–	–	–
CCCC(O)CC/C=C/C=C/C#CC#C/C=C/CO (centres undefined)	–	87	–	–	–	–	–
Nc1ccc2[nH]ccc2c1	–	132	–	–	–	–	–
Cc1cc(Cl)c(C)cc1Cl	222	71	–	–	–	–	–
C/C=C(/C)CCC	95.6	-118	–	–	–	–	–
C=C1CCCCC1	102	-107	–	1.6	–	–	–
CC(C)C(Cl)Cl	106	–	–	1.6	–	–	–
C=CCC(=O)OCC	119	–	–	–	–	–	–

SMILES	boiling point [°C]	melting point [°C]	ready biodegradability	log10 vapour pressure (mmHg)	log10 Henry constant (atm·m³/mol)	log10 biodegradation half-life (days)	log10 Koc (L/kg)
CC(C)(C)N(NC(=O)c1ccccc1)C(=O)c1ccc(Cl)cc1Cl	–	134	–	–	–	–	–
CCCCc1ccncc1	209	–	–	–	–	–	–
C[C@H]1C(=O)CC[C@@H]2[C@]1(C)CC[C@H]1[C@@]2(C)CC[C@@]2(C)[C@@H]3CC(C)(C)CC[C@]3(C)CC[C@]12C	–	263	–	–	–	–	–
CC(C(=O)O)c1ccc(C(=O)c2ccccc2)s1 (centres undefined)	–	96	–	–	–	–	–
C=CCCCCCCCCC(=O)O	275	24.5	–	-3.03	–	–	–
CC1(C(=O)O)CCCCC1	234	37.5	–	–	–	–	–
Clc1cc(Cl)c(-c2ccc(Cl)c(Cl)c2)c(Cl)c1	–	–	–	–	-4.13	–	–
CCCC=CC(C)C	112	-108	–	–	–	–	–
C[C@@](Cc1ccc(O)c(O)c1)(NN)C(=O)O	–	208	–	–	–	–	–
NNC(=O)CCCCC(=O)NN	–	–	not readily biodegradable	–	–	–	–
O=[N+]([O-])c1c(Cl)cc(Cl)cc1Cl	–	72	not readily biodegradable	–	–	–	–
CCC1(C2=C[C@H]3CC[C@@H](C2)C3)C(=O)NC(=O)NC1=O	–	213	–	–	–	–	–
COc1ccc(C=O)c(OC)c1	290	72	–	–	–	–	–
CC(C)COC=O	98.2	-95.8	–	1.6	–	–	–
CCCCC(C)C	90	-118	–	1.82	–	0.477	–
CC(=O)Nc1cccc(F)c1	–	83	–	–	–	–	1.57
C=CCCCC=C	–	-129	–	–	–	–	–
CCCCC(C#N)(Cn1cncn1)c1ccc(Cl)cc1 (centres undefined)	–	–	–	–	–	–	2.7
C=CC(C)(C)C(=O)O	185	-6	–	–	–	–	–
OC(CCN1CCCCC1)(c1ccccc1)C1CC2C=CC1C2 (centres undefined)	–	114	–	–	–	–	–
C[C@H]1C=CC2C(C1)C2(C)C (stereo in doubt)	169	–	–	–	–	–	–

SMILES	boiling point [°C]	melting point [°C]	ready biodegradability	log10 vapour pressure (mmHg)	log10 Henry constant (atm·m³/mol)	log10 biodegradation half-life (days)	log10 Koc (L/kg)
N#CCC(=O)NN	–	114	–	–	–	–	–
S=P(N1CC1)(N1CC1)N1CC1	–	51.5	–	–	–	–	–
COC(=O)C(=O)Cl	119	–	–	–	–	–	–
O=C1CCOCC1	166	–	–	–	–	–	–
Cc1cccc(C)c1N(C(=O)CCl)C1CCOC1=O (centres undefined)	–	146	–	-6.82	–	–	–
COC(CC(OC)OC)OC	183	–	–	–	–	–	–
CCN(CC)CCC1(c2ccccc2)C(=O)Oc2ccccc21 (centres undefined)	–	43.4	–	–	–	–	–
Cc1ccncc1C	179	-11	–	0.092	-5.43	–	–
Fc1ccncc1	109	–	–	–	–	–	–
Cc1ccccc1N1C(=O)c2cc(S(N)(=O)=O)c(Cl)cc2NC1C (centres undefined)	–	256	–	–	–	–	–
Nc1cccc2ccc(O)cc12	–	206	–	–	–	–	–
COc1cc(-c2coc3cc(O)c(OC)c(O)c3c2=O)cc(O)c1OC	–	185	–	–	–	–	–
Clc1ccc(OCOc2ccc(Cl)cc2)cc1	–	70.5	–	–	–	–	–
Cc1cc(O)c(C)c(C)c1C	266	85.3	–	–	–	–	–
O=C(CCCN1CCC2(CC1)C(=O)NCN2c1ccccc1)c1ccc(F)cc1	–	142	–	–	–	–	–
CC(=O)CCC(=O)OCC(C)C	228	–	–	–	–	–	–
Cc1ccc(C)c(Cc2ccccc2)c1	–	–	not readily biodegradable	–	–	–	–
CC(C)C(=O)C(=O)O	170	31.5	–	–	–	–	–
C=Cc1c(C)cc(C)cc1C	209	-37	–	–	–	–	–
CCCCCCCCC(Br)CBr (centres undefined)	–	28	–	-2.43	–	–	–

same assay, conditions: fish

SMILES	log10 BCF	log10 biotransformation half-life (days)
COP(=O)(OC)Oc1ccc([N+](=O)[O-])c(C)c1	0.44	0.01
Nc1c(Cl)cc(Cl)cc1Cl	2	0.67
CC(C)c1cccc(C(C)C)c1	3.28	0.56
S=C(SSSSC(=S)N1CCCCC1)N1CCCCC1	1.23	–
C=C(C)c1ccc(Cl)cc1	2.84	1.3
Brc1cc(Br)c(Br)c(Oc2c(Br)c(Br)c(Br)c(Br)c2Br)c1	5.68	–
c1ccc2c(c1)CCCC2	2.53	0.75
c1ccc2c(c1)sc1ccccc12	3.05	0.83
c1ccc(Nc2ccccc2)cc1	2.18	0.35
Clc1cc(-c2cc(Cl)c(Cl)c(Cl)c2)cc(Cl)c1Cl	5.97	–
O=[N+]([O-])c1c(Cl)cc(Cl)cc1Cl	2.47	0.71
Clc1cc(-c2c(Cl)c(Cl)c(Cl)c(Cl)c2Cl)cc(Cl)c1Cl	–	2.65
Cc1ccc(C)c(Cc2ccccc2)c1	3.14	0.45
